# How the values were obtained:
# Stamm HK4 (DSM 2938) = test: Growth of strain HK4 on butyrobetaine esters or butyrobetaine as sole C source; assay type: cell-based, Agrobacterium/Rhizobium HK4 (DSM 2938); settings: 30°C, 140 upm, 48 to 96 h
# Procedure: Der Stamm HK4 (DSM 2938) wurde auf Minimalmedium Agarplatten unter Zusatz von 0,4% (w/v) Betain als einziger C-Quelle nach Einzelkolonie-Ausstrich bei 30°C für 48 bis 72 h inkubiert. Zur Anzucht wurden Einzelkolonien des Stammes von der Agarplatte in das Minimalmedium enthaltend Butyrobetain-methylester (BBMe) und Butyrobetain-ethylester (BBEt) als jeweils einziger C-Quelle überimpft und bei 30°C und 140 upm für 48 bis 96 h inkubiert. Es wurde ein Kontrollversuch durchgeführt, bei dem die Anzucht des Stammes HK4 (DSM 2938) unter den gleichen Bedingungen, jedoch unter Zusatz von Butyrobetain anstelle eines Butyrobetain-esters als einziger C-Quelle, erfolgte.
# [1] = Control: storage of butyrobetaine esters in the medium without cells (hydrolytic stability); assay type: physicochemical; settings: same medium and conditions as Example 2 (30°C, 74 h) but without cells
# Procedure: Die Stämme HK13 (DSM 2903) und HK1349 (DSM 3944) wurden jeweils in "Nutrient Yeast broth" Vorkulturmedium (10 mL), welchem L-Carnitin (0,05% (w/v)) als Induktor des L-Carnitinstoffwechsels zugesetzt wurde, überimpft und 2 Tage bei 30°C und 140 upm inkubiert. Die Vorkulturen (0,01 mL) wurde in das Minimalmedium (10 mL), welches zusätzlich 0,02% (w/v) Betain, 0,05% (v/v) Glycerin, 0,50% (w/v) L-Glutamat und entweder 0,75% (w/v) Butyrobetain-methylester (BBMe) oder 0,75% (w/v) Butyrobetain-ethylester (BBEt) enthielt, überimpft und bei 30°C und 140 upm inkubiert. Nach 40 h betrug die OD650 von beiden Kulturen ca. 9,0 und die Kulturen befanden sich in der stationären Phase. Nach weiteren 34 h wurden Proben entnommen. Die Zellen wurden zentrifugiert (11 000 upm, 5 min) und der Überstand wurde mittels HPLC auf den Gehalt an Butyrobetain, L-Carnitin und nicht umgesetzten Butyrobetain-ester untersucht. Die Ergebnisse sind in Tabelle 2 zusammengefasst. Als Kontrollversuch wurden Butyrobetain-methylester (BBMe) und Butyrobetain-ethylester (BBEt) jeweils im gleichen Medium und unter den gleichen Bedingungen, jedoch ohne Zusatz von Zellen, gelagert. […]
# [2] = tested on: Hydrolasen im Zellextrakt des Stammes HK1349 (DSM 3944); test: Substrate specificity of the hydrolases of HK1349 (pH-stat titration); assay type: biochemical, Agrobacterium/Rhizobium HK1349 (DSM 3944); settings: 5% (v/v) ester emulsion, 37°C; for Spezifische Hydrolase-Aktivität [U/mg Protein]: lyophilised Triton X-114 supernatant of HK1349; for Relative spezifische Hydrolase-Aktivität [%]: 100% = 0,039 U/mg Protein
# Procedure: Die gemäss Beispiel 4.1. erhaltene Zellsuspension (HK1349 (DSM 3944), OD650 nm 37, 50 mM Natriumphosphat-Puffer, pH 7,5) wurde durch 10 minütige Behandlung mit Ultraschall unter Eisbadkühlung aufgeschlossen, mit Triton X-114 (5% (v/v); 30 min; 25°C) inkubiert und dann zentrifugiert (4 000 upm; 10 min; 4°C). Der Überstand wurde lyophilisiert. Der lyophilisierte Überstand (100 mg) wurde in Natriumphosphatpuffer (50 mM; pH 7,5; 1,0 mL) gelöst und zu Emulsionen von Essigsäure-ethylester, Buttersäure-ethylester und Buttersäure-methylester (5% (v/v) Ester emulgiert mittels eines Ultraturrax in destilliertem Wasser enthaltend 2% (w/v) Gummi arabicum; 20 mL) bei 37°C gegeben. Die bei der Hydrolyse des Esters freigesetzte Säure wird mit NaOH (0,01 M) unter Verwendung eines pH-Stats titriert. 1 U (Unit) entspricht der Menge an Säure (in µmol), die pro Minute freigesetzt wird. Die höchste spezifische Hydrolase-Aktivität (0,039 U/mg Protein) wurde als 100%-Wert betrachtet. Die Ergebnisse sind in Tabelle 5 zusammengestellt.
# [3] = tested on: Hydrolasen im Zellextrakt des Stammes HK1349 (DSM 3944); test: Hydrolase activity of HK1349 supernatant after cell disruption and treatment with detergents (4-nitrophenyl acetate assay); assay type: biochemical, Agrobacterium/Rhizobium HK1349 (DSM 3944); settings: supernatant after cell disruption and treatment with 5% (v/v) detergent, 30 min, 25°C; 100% = 0,30 U/mg Protein
# Procedure: Die Bestimmung der Hydrolase-Aktivität erfolgte photometrisch mittels Essigsäue-4-nitrophenylester-Assay. Hierzu wurde die Proteinlösung (900 µL) mit einer Lösung von Essigsäure-4-nitrophenylester (10 mM in Dimethylsulfoxid; 100 µL) bei 25°C versetzt. Die Absorption des während der Hydrolyse gebildeten 4-Nitrophenols (e = 15 × 10^3 × M^-1 cm^-1) wurde bei 410 nm gemessen. 1 Unit (U) entspricht der Menge 4-Nitrophenol (in µmol), die pro Minute freigesetzt wird. Die Bestimmung des Proteingehaltes der eingesetzten Proteinlösung erfolgte mit dem BCA (Bicin choninic acid) Protein Assay kit (Pierce) nach Anleitung des Herstellers. Die spezifische Hydrolase-Aktivität wird angegeben in U/mg Protein und entspricht der Menge 4-Nitrophenol (in µmol), die pro Minute und mg Protein freigesetzt wird.
# Die gemäss Beispiel 4.1. erhaltene Zellsuspension (HK1349 (DSM 3944), OD650 nm 37, 50 mM Natriumphosphat-Puffer, pH 7,5) wurde durch 10 minütige Behandlung mit Ultraschall unter Eisbadkühlung aufgeschlossen, mit verschiedenen Detergentien (5% (v/v) Detergenz; 30 min; 25°C) inkubiert und die Zelltrümmer wurden abzentrifugiert (4 000 upm; 10 min; 4°C). Die spezifische Hydrolase-Aktivität der Überstände wurde mittels Essigsäure-4-nitrophenylester-Assay bestimmt. Die höchste spezifische Hydrolase-Aktivität (0,30 U/mg Protein) wurde als 100%-Wert betrachtet. Die Ergebnisse sind in Tabelle 4 zusammengestellt. Die höchste spezifische Hydrolase-Aktivität wurde unter Verwendung von Triton X-114 beobachtet.
# [4] = 1,0 % (w/v) as sole C source in minimal medium
Molecule,Wachstum [OD650] (Stamm HK4 (DSM 2938); [4]),Spezifische Hydrolase-Aktivität [U/mg Protein] [2],Relative spezifische Hydrolase-Aktivität [%] [2],Relative spezifische Hydrolase-Aktivität [%] [3],other results
"CCOC(=O)CCC[N+](C)(C)C [BBEt, Butyrobetain-ethylester]","0,76 OD650",,,,"Wachstum [OD650] (Stamm HK4 (DSM 2938); 0,2 % (w/v) as sole C source in minimal medium): 0,23 OD650; Hydrolyse der Butyrobetain-ester zu Butyrobetain [1]: keine Hydrolyse"
"COC(=O)CCC[N+](C)(C)C [BBMe, Butyrobetain-methylester]","0,76 OD650",,,,Hydrolyse der Butyrobetain-ester zu Butyrobetain [1]: keine Hydrolyse
CCCC(=O)OCC [Buttersäure-Ethylester],,"0,028 U/mg Protein",72%,,
CCCC(=O)OC [Buttersäure-Methylester],,"0,038 U/mg Protein",97%,,
C[N+](C)(C)CCCC(=O)[O-] [Butyrobetain],"7,0 OD650",,,,
CCOC(C)=O [Essigsäure-Ethylester],,"0,039 U/mg Protein",100%,,
CCCCCCCCCCCCOS(=O)(=O)O [SDS],,,,26%,
CCCCCCCC/C=C\CCCCCCCC(=O)OCCOCC(OCCO)C1OCC(OCCO)C1OCCO (stereo not drawn) [Tween 80],,,,80%,
Triton X-100,,,,64%,
